Among the data in patent US10738011B2, “Derivatives of 5-(hetero)arylpyrazol-3-carboxylic amide or 1-(hetero)aryltriazol-4-carboxylic amide useful for the treatment of inter alia cystic fibrosis” (Proteostasis Therapeutics, Inc., priority 2014, dated 2020) are Ieq values, retold here.

The assay addresses T1, ΔF508-CFTR (Homo sapiens, UniProt P13569, DEL508-508).
T1 construct: Primary lung epithelial cells homozygous for the Cystic Fibrosis-causing ΔF508 mutation were differentiated; endogenous in cells; host or cells: primary lung (bronchial) epithelial cells (hBE) homozygous for ΔF508, differentiated at an air-liquid interface
The assay can be described thus: hBE Equivalent Current (Ieq) Assay. The format is cell-based. The settings on record: AUC of equivalent chloride current; primary lung epithelial cells homozygous for ΔF508; compound at 10 uM with VX-809 at 1 uM, 24 hours; activity relative to VX-809 (1 uM). The protocol:
Primary lung epithelial cells homozygous for the Cystic Fibrosis-causing ΔF508 mutation were differentiated for a minimum of 4 weeks in an air-liquid interface on Costar 24 well HTS filter plates prior to the equivalent current (Ieq) measurements. Cells were apically mucus-washed for 30 minutes 24 h prior to treatment with compounds. The basolateral media was removed and replaced with media containing the compound of interest diluted to its final concentration from DMSO stocks. Treated cells were incubated at 37° C. and 5% CO2 for 24 hours. At the end of the treatment period, the media was changed to the Ieq experimental solution for 30 minutes before the experiment and plates are maintained in a CO2-free incubator during this period. The plates containing the cells were then placed in pre-warmed heating blocks at 36° C.±0.5 for 15 minutes before measurements are taken. The transepithelial voltage (VT) and conductance (GT) were measured using a custom 24 channel current clamp (TECC-24) with 24 well electrode manifold. The Ieq assay measurements were made following additions with standardized time periods: • 1. The baseline VT and GT values were measured for approximately 20 minutes. • 2. Benzamil was added to block ENaC for 15 minutes. • 3. Forskolin plus VX-770 were added to maximally activate ΔF508-CFTR for 27 minutes. • 4. Bumetanide was added to inhibit the NaK2Cl cotransporter and shut-off secretion of chloride.
The activity data captured was the area under the curve (AUC) for the traces of the equivalent chloride current. The AUC was collected from the time of the forskolin/VX-770 addition until the inhibition by bumetanide addition. Correction in response to compound treatment was scored as the increase in the AUC for compound-treated samples over that of vehicle-treated samples. (** indicates activity ≥200% of VX-809 (1 uM) with compound at 10 uM and VX-809 at 1 uM; * indicates activity 100-200% of VX-809 (1 uM) with compound at 10 uM and VX-809 at 1 uM. ^## indicates activity ≥200% of VX-809 (3 uM) with compound at 10 uM and VX-809 at 3 uM; ^# indicates activity 100-200% of VX-809 (3 uM) with compound at 10 uM and VX-809 at 3 uM.

T1 sequence (P13569 with tags, fused parts or gaps DEL508-508): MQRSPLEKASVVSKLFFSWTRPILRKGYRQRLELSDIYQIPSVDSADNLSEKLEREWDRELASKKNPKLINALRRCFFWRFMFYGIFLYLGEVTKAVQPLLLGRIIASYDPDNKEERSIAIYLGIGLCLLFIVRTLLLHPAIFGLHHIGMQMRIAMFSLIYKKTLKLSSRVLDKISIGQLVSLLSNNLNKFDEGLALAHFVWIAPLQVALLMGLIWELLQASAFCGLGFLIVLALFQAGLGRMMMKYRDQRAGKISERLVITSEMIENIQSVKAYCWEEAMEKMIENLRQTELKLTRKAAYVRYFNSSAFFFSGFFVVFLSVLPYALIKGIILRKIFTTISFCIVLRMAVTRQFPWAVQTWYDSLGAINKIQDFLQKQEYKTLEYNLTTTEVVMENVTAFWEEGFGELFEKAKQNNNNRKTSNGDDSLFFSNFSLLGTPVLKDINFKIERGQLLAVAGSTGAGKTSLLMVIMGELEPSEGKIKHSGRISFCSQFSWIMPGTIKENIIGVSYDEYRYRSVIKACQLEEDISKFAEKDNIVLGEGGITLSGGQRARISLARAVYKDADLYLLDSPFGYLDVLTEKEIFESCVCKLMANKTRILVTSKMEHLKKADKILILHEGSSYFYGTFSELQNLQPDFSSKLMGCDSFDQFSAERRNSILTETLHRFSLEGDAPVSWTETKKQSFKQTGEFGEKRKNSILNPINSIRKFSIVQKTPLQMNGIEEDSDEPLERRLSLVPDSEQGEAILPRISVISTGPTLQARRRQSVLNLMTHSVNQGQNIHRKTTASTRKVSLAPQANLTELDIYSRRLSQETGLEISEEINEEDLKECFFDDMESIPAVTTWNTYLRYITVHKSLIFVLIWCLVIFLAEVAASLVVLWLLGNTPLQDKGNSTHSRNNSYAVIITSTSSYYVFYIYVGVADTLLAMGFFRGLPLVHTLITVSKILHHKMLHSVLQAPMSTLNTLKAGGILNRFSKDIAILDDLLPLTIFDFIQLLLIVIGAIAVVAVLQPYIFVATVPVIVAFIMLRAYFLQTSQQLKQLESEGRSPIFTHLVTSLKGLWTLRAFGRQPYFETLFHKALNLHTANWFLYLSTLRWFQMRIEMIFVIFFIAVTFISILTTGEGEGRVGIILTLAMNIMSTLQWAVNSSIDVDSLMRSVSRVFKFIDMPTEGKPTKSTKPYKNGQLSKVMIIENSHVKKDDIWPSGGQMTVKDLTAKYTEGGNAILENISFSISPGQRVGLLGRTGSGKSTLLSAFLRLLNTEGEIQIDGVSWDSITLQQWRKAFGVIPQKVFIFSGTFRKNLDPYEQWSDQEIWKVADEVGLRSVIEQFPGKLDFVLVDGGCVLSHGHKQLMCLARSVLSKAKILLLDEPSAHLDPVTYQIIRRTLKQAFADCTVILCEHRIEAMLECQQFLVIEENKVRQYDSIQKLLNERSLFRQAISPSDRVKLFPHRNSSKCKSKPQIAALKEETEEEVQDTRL

For `O=C(NCC1CCCO1)c1cc(-c2ccccc2)n[nH]1` (stereo not shown), the Ieq result is “* (activity 100-200% of VX-809 (1 uM) with compound at 10 uM and VX-809 at 1 uM)”.
For `O=C(NCCCn1ccnc1)c1cc(-c2ccccc2)n[nH]1` the value was “* (activity 100-200% of VX-809 (1 uM) with compound at 10 uM and VX-809 at 1 uM)”; for `O=C(NCCN1CCOCC1)c1cc(-c2ccccc2)n[nH]1`, “* (activity 100-200% of VX-809 (1 uM) with compound at 10 uM and VX-809 at 1 uM)”.
Consider `COCCNC(=O)c1cc(-c2ccccc2)n[nH]1`, for which the Ieq result is “* (activity 100-200% of VX-809 (1 uM) with compound at 10 uM and VX-809 at 1 uM)”.
